Patent US10189809B2, “SGC stimulators” (Ironwood Pharmaceuticals, Inc., priority 2010, dated 2019)
Read-outs that look alike come from different tables or passages of the source.

Experiments:
Thoracic aortic rings [1] = assay: Thoracic aortic rings assay (Example 19a; IBMX as 100% inhibition); conditions: compound at 10 μM, rat thoracic aortic rings contracted with 100 ng/mL phenylephrine; for inhibition at 10 µM: read-out: Percent Relaxation at 10 μM
Protocol: Thoracic aortic rings were dissected from anesthetized (isoflurane) male Sprague-Dawley rats weighing 275-299 g. Tissues were immediately transferred to ice-cold Krebs-Henseleit solution, which had been aerated with 95% O2 and 5% CO2 for 30 minutes. Following removal of connective tissue, aortic sections were cut into 4 rings (˜2 mm each) and suspended on 2 L-shaped hooks, with one hook fixed at the bottom of the tissue bath (Schuler Organ Bath, Harvard Apparatus) and the other connected to a force transducer (F30 Force Transducer, Harvard Apparatus). Baths contained Krebs Henseleit solution (10 mL) heated to 37° C. and aerated with 95% O2 and 5% CO2. Rings were brought to an initial tension of 0.3-0.5 g and gradually raised to a resting tension of 1.0 g over 60 minutes. Rings were rinsed with Krebs Henseleit solution (heated to 37° C. and aerated with 95% O2 and 5% CO2) at 15 minute intervals until a stable baseline was obtained. Rings were considered to be stable after a resting tension of 1.0 g was maintained (for approximately 10 minutes) without need for adjustment. Rings were then contracted with 100 ng/mL phenylephrine by adding 100 uL of a 10 μg/mL phenylephrine stock solution. Tissues achieving a stable contraction were then treated in a cumulative, dose dependent manner with test compounds prepared in dimethylsulfoxide (DMSO). In some cases, tissues were rinsed three times over a 5 minute period with Krebs-Heinseleit's solution (heated to 37° C. and aerated with 95% O2 and 5% CO2), allowed to stabilize at baseline, and then used for characterization of other test articles or DMSO effects. All data were collected using the HSE-ACAD software provided by Harvard Apparatus. […] EC50 values were calculated from concentration-response curves generated with GraphPad Prism Software.

[2] = molecular target: T1, soluble guanylate cyclase (sGC) (Homo sapiens (Human), UniProt Q02108+Q02153); assay: sGC-HEK-cGMP assay run in the absence of SNP (HEK WC assay); format: cell-based; conditions: for HEK WC Assay (fold increase at 10 μM): compound at 10 μM; for HEK WC Assay (fold increase at 10 μM) / HEK WC Assay (fold increase at 30 μM): no SNP, increase in the sGC receptor activity; for HEK WC Assay (fold increase at 30 μM) / HEK WC Assay (fold increase at 30 μM in the absence of SNP): compound at 30 μM
T1 sequence (Q02153 whole entry): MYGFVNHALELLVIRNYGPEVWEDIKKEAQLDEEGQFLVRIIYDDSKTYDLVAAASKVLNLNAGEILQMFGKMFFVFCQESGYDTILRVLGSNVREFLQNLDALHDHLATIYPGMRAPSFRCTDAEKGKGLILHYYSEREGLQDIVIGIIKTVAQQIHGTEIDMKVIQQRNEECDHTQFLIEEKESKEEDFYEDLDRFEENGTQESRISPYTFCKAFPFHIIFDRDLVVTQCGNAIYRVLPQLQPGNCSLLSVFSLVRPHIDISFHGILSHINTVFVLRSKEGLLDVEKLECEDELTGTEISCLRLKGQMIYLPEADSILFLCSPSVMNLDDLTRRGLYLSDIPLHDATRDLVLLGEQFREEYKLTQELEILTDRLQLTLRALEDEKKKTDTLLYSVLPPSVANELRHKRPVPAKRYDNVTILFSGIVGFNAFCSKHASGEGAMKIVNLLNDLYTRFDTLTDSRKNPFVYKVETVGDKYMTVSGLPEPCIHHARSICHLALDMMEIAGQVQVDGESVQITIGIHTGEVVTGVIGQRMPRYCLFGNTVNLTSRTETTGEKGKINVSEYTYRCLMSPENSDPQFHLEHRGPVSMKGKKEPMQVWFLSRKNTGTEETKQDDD
T1 sequence (Q02108 whole entry): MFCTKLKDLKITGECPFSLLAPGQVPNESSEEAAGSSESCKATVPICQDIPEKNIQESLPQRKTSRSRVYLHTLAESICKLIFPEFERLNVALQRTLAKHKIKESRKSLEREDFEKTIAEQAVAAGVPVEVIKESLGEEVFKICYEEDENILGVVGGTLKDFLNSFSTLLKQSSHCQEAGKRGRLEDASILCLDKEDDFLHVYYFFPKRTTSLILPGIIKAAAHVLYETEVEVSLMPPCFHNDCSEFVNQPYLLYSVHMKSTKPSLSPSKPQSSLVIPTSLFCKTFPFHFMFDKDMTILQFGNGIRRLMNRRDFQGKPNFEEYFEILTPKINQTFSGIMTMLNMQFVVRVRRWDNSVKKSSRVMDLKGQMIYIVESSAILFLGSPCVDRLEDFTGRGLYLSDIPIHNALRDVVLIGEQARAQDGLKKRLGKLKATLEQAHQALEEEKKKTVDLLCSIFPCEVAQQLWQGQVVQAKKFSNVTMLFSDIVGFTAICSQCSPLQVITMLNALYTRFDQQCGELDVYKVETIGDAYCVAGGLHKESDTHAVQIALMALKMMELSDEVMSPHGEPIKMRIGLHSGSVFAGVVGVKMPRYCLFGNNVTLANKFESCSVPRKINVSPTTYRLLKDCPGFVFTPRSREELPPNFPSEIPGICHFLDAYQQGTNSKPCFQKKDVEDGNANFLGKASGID
In short: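 Intracellular cGMP was measured by LC/MS, using a standard curve, in HEK293 cells treated with compound for 10 min at 37° C after a 15 min 0.5 mM IBMX pretreatment, with no SNP present. Lysis and quench used 0.1 M HCl. EC50 values came from concentration-response fits.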

[3] = molecular target: T1, soluble guanylate cyclase (sGC); assay: sGC-HEK-cGMP assay run with SNP incubation (HEK WC assay); format: cell-based; conditions: for HEK WC Assay (fold increase at 30 μM in the presence of 10 μM SNP): compound at 30 μM; for EC50: in the presence of 10 uM SNP
In short: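 EC50 values derive from concentration-response curves of intracellular cGMP in HEK293 cells, which express sGC endogenously. Compound and sodium nitroprusside were co-incubated 10 min at 37 °C after a 15-min 0.5 mM IBMX step, with 0.1 M HCl lysis and 1% DMSO vehicle.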

[4] = molecular target: T2, Human soluble guanylate cyclase enzyme (hsGC) (Homo sapiens (Human), UniProt Q02108+Q02153); assay: Purified human sGC enzyme activity assay; format: biochemical; conditions: for sGC Enzyme (specific activity at 10 μM) / sGC Enzyme (fold increase at 10 μM without SNP): 10 μM compound; for sGC Enzyme (specific activity at 30 μM) / sGC Enzyme (fold increase at 30 μM without SNP) / sGC Enzyme (fold increase at 30 μM): 30 μM compound; for sGC Enzyme (fold increase at 30 μM): without the addition of SNP
T2 sequence (Q02153 whole entry): as the sequence (Q02153 whole entry) above
T2 sequence (Q02108 whole entry): as the sequence (Q02108 whole entry) above
In short: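 Values are fold-change of sGC specific activity, nmoles cGMP per mg enzyme per min, relative to DMSO controls. Reactions: 5 ng human enzyme, 300 μM GTP, 1 mM IBMX, 2 mM MgCl2/DTT, 0.1 M Tris pH 8.0, compound 10 or 30 μM final, 37° C for 30 minutes, methanol quench. cGMP read against a 0.078-10 μM final standard curve.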

[5] = molecular target: T2, Human soluble guanylate cyclase enzyme (hsGC); assay: Purified human sGC enzyme synergy assay in the presence of 1 μM sodium nitroprusside (SNP); format: biochemical; conditions: for sGC Enzyme (fold increase at 10 μM with SNP): 10 μM compound; for sGC Enzyme (fold increase at 30 μM with SNP): 30 μM compound
In short: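 Fold-change in cGMP-forming specific activity (nmol/mg/min) versus DMSO, with 1 μM SNP present throughout. Reactions held 30 min at 37 °C with 10 or 30 μM compound, 5 ng human sGC, 300 μM GTP, 1 mM IBMX and 2 mM MgCl2 at pH 8.0, then stopped with cold methanol.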

Thoracic aortic rings [6] = assay: Alternative thoracic aortic rings assay (Example 19b; resting tension as 100% inhibition); set-up: species or system rat; conditions: for inhibition at 1 µM: read-out: Percent Relaxation at 1 μM; for inhibition at 3 µM: read-out: Percent Relaxation at 3 μM; for EC50: read-out: Aortic Ring EC50
In short: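 EC50 values come from cumulative concentration-response relaxation of phenylephrine (100 ng/mL)-contracted thoracic aortic rings from 275-299 g male Sprague-Dawley rats. Rings were equilibrated at 1.0 g tension in oxygenated Krebs-Henseleit at 37 °C, with compounds given in DMSO and tension measured isometrically.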

[7] = read-out: HEK WC Assay (% Emax at 10 uM/with 10 uM SNP)
[8] = read-out: HEK WC Assay (% Emax at 30 uM/with 10 uM SNP)
[9] = read-out: HEK WC Assay (% Emax at 10 μM with 10 uM SNP)
[10] = read-out: HEK WC Assay (% Emax at 10 μM/with 10 uM SNP)
[11] = read-out: HEK WC Assay (% Emax at 30 μM with 10 uM SNP)
[12] = read-out: HEK WC Assay (% Emax at 30 μM/with 10 uM SNP)
[13] = read-out: HEK WC Assay in the presence of 10 uM SNP EC50

Row | SMILES | inhibition at 10 µM (Thoracic aortic rings [1]) [%] | Emax at 10 µM [3, 7] [%] | Emax at 30 µM [3, 8] [%] | sGC Enzyme (specific activity at 10 μM) [4] | sGC Enzyme (fold increase at 10 μM without SNP) [4] | sGC Enzyme (specific activity at 30 μM) [4] | sGC Enzyme (fold increase at 30 μM without SNP) [4] | HEK WC Assay (fold increase at 30 μM in the absence of SNP) [2] | HEK WC Assay (fold increase at 30 μM in the presence of 10 μM SNP) [3] | Emax [3, 9] [%] | Emax at 10 µM [3, 10] [%] | Emax [3, 11] [%] | Emax at 30 µM [3, 12] [%] | sGC Enzyme (fold increase at 30 μM) [4] | sGC Enzyme (fold increase at 30 μM with SNP) ([5]; with the addition of SNP) | also measured
1 | Fc1ccccc1Cn1nc(-c2ccccn2)cc1-c1ccccn1 [Compound I-1] | 53.7 | 0 to 10 | 10 to 20 | B (B = 50 to <100) | B (B = 2 to <5 fold increase) | C (C = 100 to <200) | C (C = 5 to <10 fold increase) | – | – | – | – | – | – | – | – | HEK WC Assay (fold increase at 10 μM) [2]: A (A = no increase to <1 fold increase); HEK WC Assay (fold increase at 30 μM) [2]: C (C = 2 to <5 fold increase)
2 | Fc1ccccc1Cn1nc(-c2ncccn2)cc1-c1ccccc1 [Compound I-2] | 101 | 10 to 20 | 20 to 40 | B (B = 50 to <100) | B (B = 2 to <5 fold increase) | A (A = 0 to <50) | B (B = 2 to <5 fold increase) | – | – | – | – | – | – | – | – | HEK WC Assay (fold increase at 10 μM) [2]: A (A = no increase to <1 fold increase); HEK WC Assay (fold increase at 30 μM) [2]: B (B = 1 to <2 fold increase)
3 | Fc1ccccc1Cn1nc(-c2ccccn2)cc1-c1ccccc1F [Compound I-7] | 60.4 | 0 to 10 | 0 to 10 | D (D = 200 to <500) | B (B = 2 to <5 fold increase) | D (D = 200 to <500) | B (B = 2 to <5 fold increase) | – | – | – | – | – | – | – | – | sGC Enzyme (fold increase at 10 μM with SNP) ([5]; with 1 μM SNP): B (B = 2 to <5 fold increase); sGC Enzyme (fold increase at 30 μM with SNP) ([5]; with 1 μM SNP): C (C = 5 to <10 fold increase)
4 | Fc1ccccc1Cn1nc(-c2ccccn2)cc1-c1ccsc1 [Compound I-26] | 85.3 | 20 to 40 | 40 to 60 | D (D = 200 to <500) | B (B = 2 to <5 fold increase) | D (D = 200 to <500) | C (C = 5 to <10 fold increase) | – | – | – | – | – | – | – | – | sGC Enzyme (fold increase at 10 μM with SNP) ([5]; with 1 μM SNP): C (C = 5 to <10 fold increase); sGC Enzyme (fold increase at 30 μM with SNP) ([5]; with 1 μM SNP): D (D = equal or >10 fold increase)
5 | Fc1ccccc1Cn1nc(-c2ccccn2)cc1-c1nccs1 [Compound I-27] | 77.2 | 20 to 40 | 40 to 60 | C (C = 100 to <200) | B (B = 2 to <5 fold increase) | D (D = 200 to <500) | B (B = 2 to <5 fold increase) | – | – | – | – | – | – | – | – | –
6 | Nc1ccnc(-c2cc(-c3ccsc3)n(Cc3ccccc3F)n2)n1 [Compound I-49] | 106 | 20 to 40 | 40 to 60 | D (D = 200 to <500) | C (C = 5 to <10 fold increase) | E (E = 500 to <1000) | D (D = equal or >10 fold increase) | – | – | – | – | – | – | – | – | –
7 | Nc1nc(-c2cc(-c3ccon3)n(Cc3ccccc3F)n2)ncc1C1(O)CC1 [Compound I-119, I-(4-amino-2-(1-(2-fluorobenzyl)-5-(isoxazol-3-yl)-1H-pyrazol-3-yl)pyrimidin-5-yl)cyclopropanol] | – | – | – | – | – | – | – | C (C = 2 to <5 fold increase) | E (E = 10 to <20 fold increase) | 100 to 120 | > 120 | 100 to 120 | > 120 | B (B = 2 to <5 fold increase) | D (D = 10 to <30 fold increase) | EC50 [3, 13]: < 20 µM; Percent Relaxation at 1 μM (Thoracic aortic rings [6]; Table 10B): C (C = 20 to <40%); Percent Relaxation at 3 μM (Thoracic aortic rings [6]; Table 10B): E (E = 60 or <80%); Percent Relaxation at 10 μM (Thoracic aortic rings [6]; 10 μM, Table 10B): G (G = 100 to <120%); inhibition at 1 µM (Thoracic aortic rings [6]; Rattus norvegicus, Table 10A): 20 to 40%; inhibition at 3 µM (Thoracic aortic rings [6]; Rattus norvegicus, Table 10A): 60 to 80%; inhibition at 10 µM (Thoracic aortic rings [6]; Rattus norvegicus, 10 μM, Table 10A, read-out: Percent Relaxation at 10 μM): 100 to 120%; EC50 (Thoracic aortic rings [6]; Rattus norvegicus, Table 10A): < 2 µM; EC50 (Thoracic aortic rings [6]; Table 10B): < 2 µM
8 | Nc1nc(-c2cc(-c3ccon3)n(Cc3ccccc3F)n2)ncc1NC(=O)c1ccccc1 [Compound I-126] | – | – | – | – | – | – | – | E (E = 10 to <20 fold increase) | F (F = 20 to <30 fold increase) | 100 to 120 | > 120 | 100 to 120 | 100 to 120 | D (D = 10 to <30 fold increase) | D (D = 10 to <30 fold increase) | EC50 [3, 13]: < 20 µM; Percent Relaxation at 1 μM (Thoracic aortic rings [6]; Table 10B): F (F = 80 to <100%); Percent Relaxation at 3 μM (Thoracic aortic rings [6]; Table 10B): G (G = 100 to <120%); inhibition at 1 µM (Thoracic aortic rings [6]; Rattus norvegicus, Table 10A): 80 to 100%; inhibition at 3 µM (Thoracic aortic rings [6]; Rattus norvegicus, Table 10A): 100 to 120%; EC50 (Thoracic aortic rings [6]; Rattus norvegicus, Table 10A): < 2 µM; EC50 (Thoracic aortic rings [6]; Table 10B): < 2 µM
9 | CC(C)(C)NC(=O)c1cnc(-c2cc(-c3ccon3)n(Cc3ccccc3F)n2)nc1N [Compound I-136] | – | – | – | – | – | – | – | D (D = 5 to <10 fold increase) | E (E = 10 to <20 fold increase) | 60 to 80 | 20 to 40 | 20 to 40 | 20 to 40 | C (C = 5 to <10 fold increase) | D (D = 10 to <30 fold increase) | EC50 [3]: < 20 µM; Emax ([3]; read-out: HEK WC Assay (% Emax at 1 μM with 10 uM SNP)): 40 to 60%
10 | COc1ccc(C2=Nc3nc(-c4cc(-c5ccon5)n(Cc5ccccc5F)n4)ncc3C(C)(C)O2)cc1 [Compound I-137] | – | – | – | – | – | – | – | C (C = 2 to <5 fold increase) | D (D = 5 to <10 fold increase) | 40 to 60 | 100 to 120 | 40 to 60 | 20 to 40 | B (B = 2 to <5 fold increase) | C (C = 5 to <10 fold increase) | EC50 [3, 13]: 40 to 60 µM
11 | Nc1nc(-c2nn(Cc3ccccc3F)c3ncccc23)ncc1C1CC1 [Reference Compound, BAY 41-2272, reference compound] | – | – | – | – | – | – | – | – | – | – | – | – | – | – | – | Percent Relaxation at 10 μM (Thoracic aortic rings [1]): 100%
